Experimental findings from US10722586B2, “Filmogenic compositions for topical anaesthetic bioadhesives—tabs, for controlled release of active principles and topical anaesthetic bioadhesives” (UNIVERSIDADE FEDERAL DE PELOTAS, priority 2014, dated 2020) are described below.

This data set has as its system cell line of mouse fibroblasts (NIH/3T3). Briefly: Cytotoxicity test (MTT, ISO 10993) on NIH/3T3 fibroblasts. Format: cell-based. Conditions: absorbance at 540 nm, mean (±SD). The protocol:
The cytotoxicity of the products of the invention is evaluated with the cell line of mouse fibroblasts (NIH/3T3).
The test is performed according to ISO 10993 (2009). The cell suspension is plated at a concentration of 2×10^4 cells per well and delivered into a cell culture dish of 96 wells. Each well receives 200 μl DMEM (Dulbecco's Modified Eagle Medium) supplemented with 10% Fetal Bovine Serum. The plate is then incubated at 37° C. in an atmosphere containing 5% CO2 for 24 hours. In control wells, 200 μl DMEM (Dulbecco's Modified Eagle Medium) is supplemented with fetal bovine serum 10%. After removal of the test extracts, 200 μl PBS (phosphate buffered saline) and 20 μl of MTT (tetrazolium salt [3-(4,5-dimetltiazol-2-yl)-2,5-diphenyltetrazolium bromide] are added to each well. The plate is incubated in a room without light for 24 hours at 37° C. After that, MTT is aspirated and 200 μl dimethylsulfoxide (DMSO) is added to each well. Thereafter, absorbance at 540 nm is measured using a spectrophotometer and the results were analyzed statistically.
The data are tabulated and submitted to Kruskal-Wallis nonparametric statistical analysis and Tukey's complementary test (p<0.05).
The results of cytotoxicity testing are illustrated in FIG. 10.

As for `CCOC(=O)c1ccc(N)cc1` [Example P20, benzocaine], the “ABSORBANCE (540 nm)” value is reported as 0.511 (±0.032)^A.
